In patent publication US9775859B2, “Methods and compositions for preventing and treating a disease related to glycan dysregulation” (Sinai Health System, priority 2005, dated 2017):
Entries after “also recorded” stand apart in the source; their conditions may differ.

Assays:
[1] = system: CHO cells; assay: L-PHA and ConA lectin staining of CHO cells by FACS; format: cell-based, Chinese Hamster; conditions: CHO cells treated with inhibitor
Description: (§1) For comparison of N-glycan profiles of mice and human MS patients, CHO cells and CHO cells deficient at 5 different steps in the N-glycan pathway (Glucosidase I, Mannosidase I, MGAT1, Mannosidase II and MGAT5, FIG. 7A) were used to define relative L-PHA and Concanavillin A (ConA) lectin staining levels by FACS along with MALDI TOF N-glycan processing profiles. […] Indeed, a human infant with severe human glucosidase I deficiency accumulates Glc3Man (885 A ion in FIG. 16A, 21C) in the urine, a 4 hexose oligomer which derives from the Glucosidase I substrate Glc3Man9GlcNAc2 via endo-mannosidase activity (70). […] Such activity would produce Man8GlcNAc2, Man7GlcNAc2 and Man6GlcNAc2 structures and allow processing by Mannosidase I/II. Indeed, N-glycans of these 3 compositions accumulate in Glucosidase I/II inhibited cells when Mannosidase I activity is blocked with DMN (69). The larger structures Glc3Man9GlcNAc2 (mass 3008) and Glc3Man7GlcNAc2 (mass 2600) were also observed (67), however they were at lower relative intensities compared to the A ion group (FIG. 21C). […] Mixing CHO and Lec1 cells in various proportions confirmed that relative differences in expression of N-glycan structures can be determined using MALDI TOF (FIG. 21G).

[2] = system: CHO cells; assay: MALDI-TOF mass spectroscopy N-glycan profile of CHO cells; format: cell-based, Chinese Hamster; conditions: CHO cells treated with inhibitor
Experimental: This was done as a service at the Glycotechnology core facility, a resource of the Glycobiology Research and Training Center (GRTC) at the University of California, San Diego. CD3+ murine T cells (6×10^6), resting PBMCs from human controls and MS subjects (6×10^6) and CHO cells (10×10^6) were lysed with 1% SDS in 100 mM Tris pH 7.4, dialyzed to remove SDS, digested with trypsin to generate glycopeptides and treated with PNGaseF to release the N-glycans. To focus on early processing, N-glycans were desialylated by mild acid digestion prior to permethylation and MALDI-TOF mass spectroscopy. Monoisotopic peaks in the spectra were identified using GlycanMass and GlycoMod online software, with specific targeting of the N-glycan intermediates occurring during Golgi processing.
as §1

[3] = system: PL/J and C57/B6 T cell cultures; assay: L-PHA staining of mouse CD3+ T cells stimulated with anti-CD3, FACS; format: cell-based; conditions: for up-regulation of β1,6 GlcNAc branched N-glycans following stimulation: anti-CD3, minimal concentrations; for resting levels of β1,6 GlcNAc branched N-glycans: minimal concentrations
Experimental: (§2) Mice used for L-PHA staining and quantitative RT-PCR were sex and age matched. […] 129/Sv mice were from an original Mgat5 gene targeted population (28). All other mice (SJL, NOD, Balb/c and B10.S) were obtained from Jackson Laboratories. […] Mouse and Jurkat cells were stained with L-PHA and LEA by first blocking with PBA (2% bovine serum albumin/0.01% azide/PBS) for 10 min at 4° C. and then incubated with 4 μg/ml of L-PHA-FITC (Vector Laboratories Inc.) or 20 μg/ml of LEA-FITC (Sigma) in PBA for 40 min at 4° C. and analyzed by a BD FACSCalihur (BD Pharmingen, San Diego, Calif.). The level of lectin binding was normalized by untreated control and calculated as a percentage (Sample intensity/control intensity-1) %.
Mice used for L-PHA staining and quantitative RT-PCR were sex and age matched. […] 129/Sv mice were from the original Mgat5 gene targeted population (28). All other mice (SJL, NOD, Balb/c and B10.S) were obtained from Jackson Laboratories. Mouse cells were stained with anti-CD4 (RM4-5), anti-CD8 (53-6.7), anti-CD45R (RA3-6B2) from eBioscience, and L-PHA (4 μg/ml) and LEA (20 μg/ml) from Sigma. […] The indicated monosaccharides and/or metabolites were added daily except glucose which was added only at time zero. […] The plateau or highest non-toxic dose is shown.

[4] = system: Jurkat T-cells; assay: LEA-FITC staining (poly-N-acetyllactosamine) of Jurkat T cells, FACS; format: cell-based, human; conditions: 3 days culture with supplement
Experimental: as §2
(§3) Mice used for L-PHA staining and quantitative RT-PCR were sex and age matched. […] 129/Sv mice were from the original Mgat5 gene targeted population (28). All other mice (SJL, NOD, Balb/c and B10.S) were obtained from Jackson Laboratories. Mouse cells were stained with anti-CD4 (RM4-5), anti-CD8 (53-6.7), anti-CD45R (RA3-6B2) from eBioscience, and L-PHA (4 μg/ml) and LEA (20 μg/ml) from Sigma. […] Jurkat T-cells were cultured in either glutamine free RPMI 1640, 10% FBS, 10 mM/20 mM glucose or glucose/glutamine free DMEM base media supplemented with 10% FBS, 1.5 mM glucose. The indicated monosaccharides and/or metabolites were added daily except glucose which was added only at time zero.

[5] = system: Jurkat T-cells; assay: L-PHA-FITC staining of Jurkat T cells cultured 3 days with monosaccharides, metabolites, Vitamin D3 or glycosidase inhibitors, FACS; format: cell-based, human; conditions: for Mgat5 N-glycans / β1,6GlcNAc-branched N-glycans expression (L-PHA staining): 3 days culture with supplement; for Mgat5-modified N-glycan expression: Jurkat T
Experimental: as §2, §3

[6] = system: Jurkat T-cells; assay: MS/MS mass spectroscopy of sugar-nucleotide expression in Jurkat cell lysates; format: cell-based, human
Experimental: Jurkat cell pellets (20×10^6) were resuspended in a cold 300 μl methanol:water (1:1) solution containing maltose as internal standard, vortexed for 10 seconds, and then pipetted into tubes containing 600 μl of chloroform:methanol (C:M) (3:2). Samples were vortexed for 1 minute, and then centrifuged at 14,000 rpm for 5 minutes at 4° C. Supernatants were collected, and an equal volume of C:M (1:1) was added, followed by a second extraction. The pooled aqueous fraction containing the hydrophilic metabolites was dried with a speedvac and stored at −80° C. Prior to injection, the samples were dissolved in 100 μl methanol:water (1:1). […] The metabolites were identified by their transitions in MS/MS, and quantified using the Analyte Software (SCIEX), which measured the area under the curve for the fragment ions corresponding to each parent ion. Quantities for the given substrates are graphed as pmole/min/10^6 cells.
JurkaT-cell pellets (20×10^6) were resuspended in cold 300 μl methanol:water (1:1) solution containing maltose as an internal standard, vortexed for 10 seconds, and then pipetted into tubes containing 600 μl of chloroform:methanol (C:M) (3:2). […] The metabolites were identified by their transitions in MS/MS, and quantified using the Analyte Software (SCIEX), which measured the area under the curve for the fragment ions corresponding to each parent ion. […]

OC[C@H]1NC[C@@H](O)[C@@H](O)[C@@H]1O [deoxymannojirimycin]
high-mannose structures as seen by ConA staining [1]: increased
β1,6GlcNAc-branched N-glycan expression by L-PHA staining [1]: dramatic reductions
MALDI TOF profile of N-glycans (accumulated structures) [2]: dramatic increases in high mannose structures
β1,6GlcNAc-branched tetra-antennary N-glycans (mass 2969, structure G) [2]: diminished
up-regulation of β1,6 GlcNAc branched N-glycans following stimulation ([3]; listed as DMN): significantly attenuated
resting levels of β1,6 GlcNAc branched N-glycans ([3]; listed as DMN): without affecting; also recorded: do not affect

N [ammonia]
poly-N-acetyllactosamine expression (LEA staining) [4]: dose dependently increased
Mgat5 N-glycans / β1,6GlcNAc-branched N-glycans expression (L-PHA staining) ([5]; Jurkat T-cells): dose dependently increased

NC(=O)CC[C@H](N)C(=O)O [glutamine]
poly-N-acetyllactosamine expression (LEA staining) [4]: dose dependently increased
Mgat5 N-glycans / β1,6GlcNAc-branched N-glycans expression (L-PHA staining) ([5]; Jurkat T-cells): dose dependently increased

O=c1ccn([C@@H]2O[C@H](CO)[C@@H](O)[C@H]2O)c(=O)[nH]1 [uridine]
poly-N-acetyllactosamine expression (LEA staining) [4]: dose dependently increased
intracellular UDP-GlcNAc levels [6]: dramatically raised
Mgat5 N-glycans / β1,6GlcNAc-branched N-glycans expression (L-PHA staining) ([5]; Jurkat T-cells): dose dependently increased

O[C@H]1[C@H](O)[C@@H](O)CN2CC[C@H](O)[C@H]12 [castanospermine, reference compound]
Mgat5 glycan / β1,6GlcNAc-branched N-glycan expression after glycosidase inhibition (L-PHA) ([5]; Jurkat T cells, 3 days): dose dependent reduction; also recorded: reduced
up-regulation of β1,6 GlcNAc branched N-glycans following stimulation ([5]; Jurkat T cells, PMA/ionomycin or anti-CD3, minimal concentrations, listed as CST): significantly attenuated
resting levels of β1,6 GlcNAc branched N-glycans ([5]; Jurkat T cells, minimal concentrations, listed as CST): without affecting; also recorded: do not affect
up-regulation of β1,6 GlcNAc branched N-glycans following stimulation ([3]; listed as CST): significantly attenuated
resting levels of β1,6 GlcNAc branched N-glycans ([3]; listed as CST): without affecting; also recorded: do not affect

CC(=O)CC(=O)O [acetoacetate]
poly-N-acetyllactosamine expression (LEA staining) [4]: dose dependently increased
Mgat5 N-glycans / β1,6GlcNAc-branched N-glycans expression (L-PHA staining) ([5]; Jurkat T-cells): dose dependently increased

N[C@H]1C(O)O[C@H](CO)[C@@H](O)[C@@H]1O (stereo partly drawn) [Glucosamine]
Mgat5-modified N-glycan expression ([5]; high concentrations): do the opposite; also recorded: declines
Mgat5-modified N-glycan expression ([5]; low concentrations): increase; also recorded: works

O=c1cc[nH]c(=O)[nH]1 [uracil]
effective concentration required to raise Mgat5-modified N-glycan expression, fold reduction compared to uridine ([5]; Jurkat T-cells, 3 days): ~100 fold

CC(=O)N[C@H]1C(OC(C)=O)O[C@H](COC(C)=O)[C@@H](OC(C)=O)[C@@H]1OC(C)=O (stereo partly drawn) [GlcNAc-tetra-acetate]
effective concentration to increase Mgat5-modified N-glycan expression, fold less than GlcNAc ([5]; Jurkat T-cells, 3 days): ~1000 fold
